# Where two headings read alike, the source gives them in different places.
# Legend:
# P-gp = system: P-gp; set-up: method as in PMID 24380838; conditions: cited from earlier work; for inhibition of P-gp: in vitro and in vivo
# CYP2B6 = molecular target: T1, CYP2B6 (Homo sapiens, UniProt P20813); experiment: Inhibition of recombinant CYP2B6 (probe bupropion); assay type: in vitro ADME
# T1 sequence (P20813 1-491): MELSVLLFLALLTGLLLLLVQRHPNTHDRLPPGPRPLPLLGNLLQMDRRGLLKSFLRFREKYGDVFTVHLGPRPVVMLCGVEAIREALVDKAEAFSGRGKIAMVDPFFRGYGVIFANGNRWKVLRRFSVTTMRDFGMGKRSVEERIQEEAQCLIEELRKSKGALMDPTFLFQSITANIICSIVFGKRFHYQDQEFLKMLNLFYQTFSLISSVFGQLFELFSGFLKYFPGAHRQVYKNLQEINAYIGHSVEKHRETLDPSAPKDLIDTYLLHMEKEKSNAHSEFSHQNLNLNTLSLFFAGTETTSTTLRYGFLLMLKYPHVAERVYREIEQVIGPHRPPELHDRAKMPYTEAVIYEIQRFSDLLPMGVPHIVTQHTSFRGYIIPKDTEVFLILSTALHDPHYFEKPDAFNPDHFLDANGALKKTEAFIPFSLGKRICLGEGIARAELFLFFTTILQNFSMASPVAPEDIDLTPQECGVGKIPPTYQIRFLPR
# Protocol: (§1) In this study, phenacetin (100 μM), coumarin (100 μM), bupropion (100 μM), paclitaxel (60 μM), tolbutamide (200 μM), mephenytoin (100 μM), chlorzoxazone (200 μM) and nifedipine (40 μM) have been used as the probe substrates for CYP1A2, 2A6, 2B6, 2C8, 2C9, 2C19, 2E1 and 3A4, respectively.
# CYP and UGT enzymes = experiment: Inhibition of the panel of eight CYP and three UGT isozymes (statements over all enzymes); assay type: in vitro ADME, human; conditions: compound 100 μM
# Protocol: After centrifugation (13,800g, 10 min), the supernatant (8 μL) was obtained for determination by UHPLC system.
# as §1
# Similarly, β-estradiol (60 μM), propofol (40 μM) and 4-MU (350 μM) were typically used as the substrates for UGT1A1, 1A9 and 2B7, respectively. After optimization of incubation conditions (Additional file 1: Fig. S2), the protein concentrations for UGT1A1, 1A9, and 2B7 were 0.125, 0.05, and 0.05 mg/mL, respectively.
# NTCP = system: NTCP; set-up: method as in PMID 30978651; conditions: cited from earlier work
# [1] = system: SW-620, BGC823, A375 cells; set-up: method as in PMID 31283981; conditions: cited from earlier work
# CYP3A4 = system: CYP3A4; set-up: method as in PMID 26586934; conditions: CYP3A4 isozyme; read-out: Km (metabolism to matrine); cited from earlier work
# [2] = set-up: method as in PMID 16500065; conditions: intravenous infusion of 600 mg oxymatrine, healthy male volunteers; cited from earlier work
# [3] = set-up: method as in PMID 26586934; conditions: pooled HLM; read-out: Km (metabolism to matrine); cited from earlier work
# [4] = set-up: method as in PMID 26586934; conditions: HIM; read-out: Km (metabolism to matrine); cited from earlier work
# [5] = system: HepG2, MCF-7, HeLa, A549 cells; set-up: method as in PMID 31283981; conditions: cited from earlier work
# [6] = set-up: method as in earlier work; conditions: rat plasma; oxymatrine 30 mg/kg intravenously; cited from earlier work
# [7] = recombinant isozyme, mean ± SD of triplicate, unit not given (IC50 classes in μM), read-out: IC50 towards CYP2B6
smiles,measurement,setting,value
"CC(C)(O)[C@@H]1CC[C@](C)([C@H]2[C@@H](O)C[C@@]3(C)[C@@H]4C[C@H](O[C@@H]5O[C@H](CO)[C@@H](O)[C@H](O)[C@H]5O)[C@H]5C(C)(C)[C@@H](O[C@@H]6OC[C@@H](O)[C@H](O)[C@H]6O)CC[C@@]56C[C@@]46CC[C@]23C)O1 [Compound B2, Astragaloside IV]",inhibition activity,"P-gp; MDR1-MDCKII cells, 100 μM",8.22%
same,IC50,CYP2B6; [7],> 100 µM
"CC(C)=CCC[C@](C)(O[C@@H]1O[C@H](CO)[C@@H](O)[C@H](O)[C@H]1O)[C@H]1CC[C@]2(C)[C@@H]1[C@H](O)C[C@@H]1[C@@]3(C)CC[C@H](O[C@@H]4O[C@H](CO)[C@@H](O)[C@H](O)[C@H]4O[C@@H]4O[C@H](CO)[C@@H](O)[C@H](O)[C@H]4O)C(C)(C)[C@@H]3CC[C@]12C [Compound D2, Ginsenoside Rd]",inhibition type (smallest AIC and SC),CYP2B6; CYP2B6,Noncompetitive inhibition
same,Ki,"CYP2B6; CYP2B6, competitive model",10.2 ± 2.1 µM
same,Ki,"CYP2B6; CYP2B6, mixed-type model",36.3 ± 10.2 µM
same,α,"CYP2B6; CYP2B6, mixed-type model",1.0 ± 0.4
same,Ki,"CYP2B6; CYP2B6, noncompetitive model",37.2 ± 2.3 µM
same,Cmax/Ki ([I]/Ki),"CYP2B6; CYP2B6, selected model, rat plasma Cmax",0.02
same,IC50,"CYP2B6; bupropion 100 μM, read-out: IC50 against CYP2B6",20.2 µM
same,IC50,CYP2B6; [7],20.2 ± 12.4 µM
"CC(C)=CCC[C@](C)(O[C@@H]1O[C@H](CO[C@@H]2O[C@H](CO)[C@@H](O)[C@H](O)[C@H]2O)[C@@H](O)[C@H](O)[C@H]1O)[C@H]1CC[C@]2(C)[C@@H]1[C@H](O)C[C@@H]1[C@@]3(C)CC[C@H](O[C@@H]4O[C@H](CO)[C@@H](O)[C@H](O)[C@H]4O[C@@H]4O[C@H](CO)[C@@H](O)[C@H](O)[C@H]4O)C(C)(C)[C@@H]3CC[C@]12C [Compound D5, Ginsenoside Rb1]",IC50,CYP2B6; [7],> 100 µM
"CC(C)=CCC[C@](C)(O)[C@H]1CC[C@]2(C)[C@@H]1[C@H](O)C[C@@H]1[C@@]3(C)CC[C@H](O)C(C)(C)[C@@H]3[C@@H](O[C@@H]3O[C@H](CO)[C@@H](O)[C@H](O)[C@H]3O[C@@H]3O[C@H](CO)[C@@H](O)[C@H](O)[C@H]3O)C[C@]12C [Compound C7, Ginsenoside Rf]",changes against these CYP and UGT enzymes,CYP and UGT enzymes,almost no changes
same,IC50,CYP2B6; [7],> 100 µM
"O=C1CCC[C@@H]2[C@H]3CCCN4CCC[C@@H](CN12)[C@@H]34 [Compound A1, Matrine]",inhibition of P-gp,P-gp,did not demonstrate the inhibition of P-gp
same,IC50,CYP2B6,> 100 µM
"CC(C)=CCC[C@](C)(O[C@@H]1O[C@H](CO)[C@@H](O)[C@H](O)[C@H]1O)[C@H]1CC[C@]2(C)[C@@H]1[C@H](O)C[C@@H]1[C@@]3(C)CC[C@H](O)C(C)(C)[C@@H]3[C@@H](O[C@@H]3O[C@H](CO)[C@@H](O)[C@H](O)[C@H]3O[C@@H]3O[C@@H](C)[C@H](O)[C@@H](O)[C@H]3O)C[C@]12C [Compound C9, Ginsenoside Re]",IC50,CYP2B6; [7],> 100 µM
"CC(C)=CCC[C@](C)(O[C@@H]1O[C@H](CO)[C@@H](O)[C@H](O)[C@H]1O)[C@H]1CC[C@]2(C)[C@@H]1[C@H](O)C[C@@H]1[C@@]3(C)CC[C@H](O)C(C)(C)[C@@H]3[C@@H](O[C@@H]3O[C@H](CO)[C@@H](O)[C@H](O)[C@H]3O)C[C@]12C [Compound C6, Ginsenoside Rg1]",IC50,NTCP,50.5 µM
same,IC50,CYP2B6; [7],> 100 µM
"CC(C)=CCC[C@](C)(O[C@@H]1O[C@H](CO[C@@H]2O[C@@H](CO)[C@H](O)[C@H]2O)[C@@H](O)[C@H](O)[C@H]1O)[C@H]1CC[C@]2(C)[C@@H]1[C@H](O)C[C@@H]1[C@@]3(C)CC[C@H](O[C@@H]4O[C@H](CO)[C@@H](O)[C@H](O)[C@H]4O[C@@H]4O[C@H](CO)[C@@H](O)[C@H](O)[C@H]4O)C(C)(C)[C@@H]3CC[C@]12C [Compound D3, Ginsenoside Rc]",IC50,CYP2B6; [7],> 100 µM
"O=C1CCC[C@@H]2[C@H]3CCC[N+]4([O-])CCC[C@@H](CN12)[C@@H]34 (stereo partly shown) [Compound A3, Oxymatrine]",effective concentrations to inhibit tumor cell viability,[1],0.10 to 40.00 µmol/L
same,Km,CYP3A4,341 µM
same,inhibition of P-gp,P-gp,did not demonstrate the inhibition of P-gp
same,fraction of oxymatrine reduced to matrine,[2],about 19.9%
same,Km,[3],221 µM
same,Km,[4],150 µM
same,reported effective concentrations (IC50 or EC50 values),[5],473.48 to 3787.84 µmol/L
same,AUC0–12h,[6],16234.27 ng·h/mL
same,CL,[6],3.10 L/h
same,Cmax,[6],32847.57 ng/mL
same,t1/2,[6],34.2 min
same,IC50,"CYP2B6; IC50 towards CYP2B6, recombinant isozyme, mean ± SD of triplicate, unit not given (IC50 classes in μM)",> 100 µM

# — article PMC7339578, “Multiple circulating alkaloids and saponins from intravenous Kang-Ai injection inhibit human cytochrome P450 and UDP-glucuronosyltransferase isozymes: potential drug–drug interactions” (Chinese Medicine, 2020)
